From PubChem BioAssay AID330 (DTP/NCI, 2004)
Several values for one entry are separate records, joined by “and”; a condition that tells them apart may be missing. Equal entries are not always repeated. Inconclusive results and toxic doses are left out. How the source made its calls: active means survival T/C of 150% or more; inactive means T/C below 125% in these data.

Test system: P388 leukemia ip, CD2F1 mice, survival T/C
Experiment: NCI In Vivo Anticancer Drug Screen. Data for tumor model P388 Leukemia (intraperitoneal) in CD2F1 (CDF1) mice
Details: endpoint: median survival time, higher = longer survival
How it was run: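 Mice carrying the transplanted tumor received test compound or vehicle. Survival was recorded in each group, and the value is the treated-group measurement divided by that of the vehicle-treated control group.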

[1] = dose: 50.0 mg/kg/injection, schedule: Q01DX005 (ip), vehicle: Klucel (hydroxypropylcellulose) (HPC)
[2] = dose: 100.0 mg/kg/injection, schedule: Q01DX005 (ip), vehicle: Klucel (hydroxypropylcellulose) (HPC)
[3] = dose: 200.0 mg/kg/injection, schedule: Q01DX005 (ip), vehicle: Klucel (hydroxypropylcellulose) (HPC)
[4] = dose: 12.5 mg/kg/injection, schedule: Q01DX009 (ip), vehicle: water
[5] = dose: 25.0 mg/kg/injection, schedule: Q01DX009 (ip), vehicle: water
[6] = dose: 50.0 mg/kg/injection, schedule: Q01DX009 (ip), vehicle: water
[7] = dose: 100.0 mg/kg/injection, schedule: Q01DX009 (ip), vehicle: water
[8] = dose: 200.0 mg/kg/injection, schedule: Q01DX009 (ip), vehicle: water
[9] = dose: 12.5 mg/kg/injection, schedule: Q01DX009 (ip), vehicle: Klucel (hydroxypropylcellulose) (HPC)
[10] = dose: 25.0 mg/kg/injection, schedule: Q01DX009 (ip), vehicle: Klucel (hydroxypropylcellulose) (HPC)
[11] = dose: 50.0 mg/kg/injection, schedule: Q01DX009 (ip), vehicle: Klucel (hydroxypropylcellulose) (HPC)
[12] = dose: 100.0 mg/kg/injection, schedule: Q01DX009 (ip), vehicle: Klucel (hydroxypropylcellulose) (HPC)
[13] = dose: 200.0 mg/kg/injection, schedule: Q01DX009 (ip), vehicle: Klucel (hydroxypropylcellulose) (HPC)

Measured: T/C

CCCCCC(=O)NCC(=O)NC1C(C)OC(Nc2ncnc3nc[nH]c23)C(O)C1O (configuration not stated)
inactive: dose: 0.5 mg/kg/injection, schedule: Q01DX009 (ip), vehicle: other 99 % of control | dose: 1.0 mg/kg/injection, schedule: Q01DX009 (ip), vehicle: other 102 % of control | dose: 2.0 mg/kg/injection, schedule: Q01DX009 (ip), vehicle: other 106 % of control | dose: 4.0 mg/kg/injection, schedule: Q01DX009 (ip), vehicle: other 106 % of control | dose: 8.0 mg/kg/injection, schedule: Q01DX009 (ip), vehicle: other 99 % of control

c1cc2nc(N3CCNCC3)nc(N3CCOCC3)c2s1
inactive: dose: 50.0 mg/kg/injection, schedule: Q01DX009 (ip), vehicle: saline 94 % of control | dose: 100.0 mg/kg/injection, schedule: Q01DX009 (ip), vehicle: saline 97 % of control | dose: 200.0 mg/kg/injection, schedule: Q01DX009 (ip), vehicle: saline 93 % of control

NNP(=O)(Oc1ccccc1)Oc1ccccc1
inactive: dose: 3.12 mg/kg/injection, schedule: Q01DX009 (ip), vehicle: saline with Tween-80 110 % of control | dose: 6.25 mg/kg/injection, schedule: Q01DX009 (ip), vehicle: saline with Tween-80 101 % of control | dose: 12.5 mg/kg/injection, schedule: Q01DX009 (ip), vehicle: saline with Tween-80 106 % of control | dose: 25.0 mg/kg/injection, schedule: Q01DX009 (ip), vehicle: saline with Tween-80 109 % of control and 110 % of control

CC(=O)OC1=C(C)C2=C3OC(=O)C(C)=C3CC[C@@]2(C)[C@@H](Cl)[C@@H]1Cl
inactive: dose: 25.0 mg/kg/injection, schedule: Q01DX005 (ip), vehicle: Klucel (hydroxypropylcellulose) (HPC) 104 % of control and 113 % of control | [1] 104 % of control and 108 % of control and 111 % of control | [2] 114 % of control and 117 % of control and 121 % of control | [3] 108 % of control and 119 % of control and 120 % of control

CC1(C)COC(=O)/C1=C/C#N
inactive: [1] 106 % of control | [2] 98 % of control | [3] 90 % of control

COc1cc2c(=O)n(C)c3ccccc3c2cc1OC
inactive: dose: 25.0 mg/kg/injection, schedule: Q01DX009 (ip), vehicle: other 91 % of control | dose: 50.0 mg/kg/injection, schedule: Q01DX009 (ip), vehicle: other 90 % of control | dose: 100.0 mg/kg/injection, schedule: Q01DX009 (ip), vehicle: other 91 % of control | dose: 200.0 mg/kg/injection, schedule: Q01DX009 (ip), vehicle: other 93 % of control | dose: 400.0 mg/kg/injection, schedule: Q01DX009 (ip), vehicle: other 99 % of control

CC(=O)c1c(OCC(O)CN2CCCCC2)ccc2c(C)cc(=O)oc12 (configuration not stated)
inactive: dose: 100.0 mg/kg/injection, schedule: Q04DX002 (ip), vehicle: saline with Tween-80 100 % of control | dose: 200.0 mg/kg/injection, schedule: Q04DX002 (ip), vehicle: saline with Tween-80 101 % of control

CCOC1OCN(CCc2ccccc2)CC1(C)C (configuration not stated)
inactive: dose: 50.0 mg/kg/injection, schedule: Q01DX009 (ip), vehicle: saline with Tween-80 108 % of control | dose: 100.0 mg/kg/injection, schedule: Q01DX009 (ip), vehicle: saline with Tween-80 119 % of control | dose: 200.0 mg/kg/injection, schedule: Q01DX009 (ip), vehicle: saline with Tween-80 118 % of control

COP(=O)(O)/C(=N/NS(=O)(=O)c1ccc(C)cc1)c1ccccc1
inactive: [4] 96 % of control | [5] 96 % of control | [6] 93 % of control | [7] 98 % of control | [8] 98 % of control | dose: 400.0 mg/kg/injection, schedule: Q01DX009 (ip), vehicle: water 97 % of control

[Cl][Sn][Cl].c1cnc2c(c1)ccc1cccnc12
inactive: dose: 100.0 mg/kg/injection, schedule: Q04DX003 (ip), vehicle: saline with Tween-80 97 % of control | dose: 200.0 mg/kg/injection, schedule: Q04DX003 (ip), vehicle: saline with Tween-80 112 % of control

CCc1ccccc1C1(Br)C(=O)c2ccccc2C1=O
inactive: dose: 100.0 mg/kg/injection, schedule: Q04DX002 (ip), vehicle: saline 102 % of control | dose: 200.0 mg/kg/injection, schedule: Q04DX002 (ip), vehicle: saline 100 % of control | dose: 400.0 mg/kg/injection, schedule: Q04DX002 (ip), vehicle: saline 101 % of control

Cc1nnc(-n2cccc2)s1
inactive: [9] 105 % of control | [10] 104 % of control and 95 % of control | [11] 100 % of control and 106 % of control | [12] 100 % of control and 111 % of control

COc1ccc2c(oc(=O)c3c(Cl)nc(C)c(C)c32)c1OC
inactive: [9] 98 % of control | dose: 12.5 mg/kg/injection, schedule: Q04DX003 (ip), vehicle: Klucel (hydroxypropylcellulose) (HPC) 100 % of control | [10] 98 % of control | dose: 25.0 mg/kg/injection, schedule: Q04DX003 (ip), vehicle: Klucel (hydroxypropylcellulose) (HPC) 102 % of control | [11] 98 % of control | dose: 50.0 mg/kg/injection, schedule: Q04DX003 (ip), vehicle: Klucel (hydroxypropylcellulose) (HPC) 94 % of control | [12] 97 % of control | dose: 100.0 mg/kg/injection, schedule: Q04DX003 (ip), vehicle: Klucel (hydroxypropylcellulose) (HPC) 90 % of control | [13] 97 % of control | dose: 200.0 mg/kg/injection, schedule: Q04DX003 (ip), vehicle: Klucel (hydroxypropylcellulose) (HPC) 90 % of control

O=C(OCC(Cl)(Cl)Cl)N1C2C3OC3C(C3OC32)N1C(=O)OCC(Cl)(Cl)Cl (configuration not stated)
inactive: dose: 50.0 mg/kg/injection, schedule: Q01DX009 (ip), vehicle: suspension in saline 99 % of control | dose: 100.0 mg/kg/injection, schedule: Q01DX009 (ip), vehicle: suspension in saline 92 % of control | dose: 200.0 mg/kg/injection, schedule: Q01DX009 (ip), vehicle: suspension in saline 94 % of control

[Cl][Pd][Cl].[NH-]C1CCCC2CCC[N-]C12 (configuration not stated)
inactive: dose: 12.5 mg/kg/injection, schedule: Q04DX002 (ip), vehicle: saline with Tween-80 104 % of control | dose: 25.0 mg/kg/injection, schedule: Q04DX002 (ip), vehicle: saline with Tween-80 110 % of control | dose: 50.0 mg/kg/injection, schedule: Q04DX002 (ip), vehicle: saline with Tween-80 104 % of control

COc1nc(Nc2cccc(F)c2)nc(OC)n1
inactive: [11] 98 % of control | [12] 95 % of control | [13] 101 % of control

CC1CN(C(=S)NNC(C)c2cc3ccccc3cn2)CC(C)O1 (configuration not stated)
inactive: dose: 12.5 mg/kg/injection, schedule: Q01DX005 (ip), vehicle: saline with Tween-80 97 % of control | dose: 25.0 mg/kg/injection, schedule: Q01DX005 (ip), vehicle: saline with Tween-80 112 % of control

c1ccc(-c2cc(Nc3ccc4c(c3)OCO4)c3cc(C4CCCCC4)ccc3n2)cc1
inactive: dose: 60.0 mg/kg/injection, schedule: Q01DX005 (ip), vehicle: saline with Tween-80 103 % of control | dose: 120.0 mg/kg/injection, schedule: Q01DX005 (ip), vehicle: saline with Tween-80 93 % of control | dose: 240.0 mg/kg/injection, schedule: Q01DX005 (ip), vehicle: saline with Tween-80 89 % of control

O=C1CCNN1c1ccccc1
inactive: [4] 100 % of control | [5] 103 % of control | [6] 100 % of control | [7] 103 % of control | [8] 106 % of control

N#CC(c1cc2c(cc1Br)OCO2)N1CCCC1 (configuration not stated)
inactive: dose: 100.0 mg/kg/injection, schedule: Q01DX001 (ip), vehicle: Klucel (hydroxypropylcellulose) (HPC) 100 % of control | dose: 200.0 mg/kg/injection, schedule: Q01DX001 (ip), vehicle: Klucel (hydroxypropylcellulose) (HPC) 101 % of control | dose: 400.0 mg/kg/injection, schedule: Q01DX001 (ip), vehicle: Klucel (hydroxypropylcellulose) (HPC) 99 % of control

O=C1C=CC(=O)C1=Cc1ccc([N+](=O)[O-])o1
inactive: dose: 0.78 mg/kg/injection, schedule: Q04DX002 (ip), vehicle: saline with Tween-80 106 % of control | dose: 1.56 mg/kg/injection, schedule: Q04DX002 (ip), vehicle: saline with Tween-80 97 % of control | dose: 3.12 mg/kg/injection, schedule: Q04DX002 (ip), vehicle: saline with Tween-80 97 % of control

COc1c(C(C)C)cc2c(c1OC)C13CCCC(C)(C)C1C(OC3=O)C2NC(=O)CCN(C)C (configuration not stated)
inactive: [10] 97 % of control | [11] 98 % of control | [12] 90 % of control
